Source: patent publication US9018392B1, “Compounds, compositions and methods for crop enhancement” (Active AgriProducts Inc., priority 2014, dated 2015)

Legend:
Type in all cases: in vivo
wheat [1] = experiment: Experiment 2(a) wheat root growth, laboratory conditions, seedling trays; conditions: 20 ppm and 40 ppm seed treatment; 72 hours; FIG. 2(a)
Description: (§1) For the Experiments described below, application of 1,2-dimethyl-4-dimethylaminomethyl-5-hydroxy benzimidazole (referred to herein as INTRINSIC™) was by way of seed treatment. Treated seeds were prepared by mixing 1.0 kg of seed and 2.0 mL of an aqueous solution of INTRINSIC™ comprising 0.1% potassium hydroxide in a ZIPLOC™ bag. Control seeds were prepared by mixing 1.0 kg of seed and 2.0 mL of aqueous 0.1% potassium hydroxide solution in a ZIPLOC™ bag. The seeds and solutions were sufficiently mixed to wet the seeds. The seeds were dried after being wetted. […] Experiment 2(a) tested the effects of 20 ppm and 40 ppm INTRINSIC™ on wheat root growth under laboratory conditions. Treated and control seeds were grown in seedling trays lined with moistened tissue. Experiment 2(b) tested the effects of 40 ppm INTRINSIC™ on wheat root growth under greenhouse conditions. Experiment 2(c) tested the effects of 40 ppm INTRINSIC™ on wheat root growth under laboratory conditions. Treated and control seeds were grown in agar culture medium. Results at 8 days are shown Figure in FIG. 2(c).

soy bean [2] = experiment: Experiment 4 soy bean root growth, greenhouse conditions; conditions: 40 ppm seed treatment; 10 days
Description: (§2) For the Experiments described below, application of 1,2-dimethyl-4-dimethylaminomethyl-5-hydroxy benzimidazole (referred to herein as INTRINSIC™) was by way of seed treatment. Treated seeds were prepared by mixing 1.0 kg of seed and 2.0 mL of an aqueous solution of INTRINSIC™ comprising 0.1% potassium hydroxide in a ZIPLOC™ bag. Control seeds were prepared by mixing 1.0 kg of seed and 2.0 mL of aqueous 0.1% potassium hydroxide solution in a ZIPLOC™ bag. The seeds and solutions were sufficiently mixed to wet the seeds. The seeds were dried after being wetted. […] Experiment 4 tested the effects of 40 ppm INTRINSIC™ on soy bean root growth under greenhouse conditions.

corn = experiment: Experiment 5 corn root growth, greenhouse conditions; conditions: 40 ppm seed treatment; 10 days
Description: as §2, with “Experiment 5” for “Experiment 4”, “on corn” for “on soy bean”

soy bean [3] = experiment: Experiment 12 soy bean yield, field test conditions; conditions: 20 ppm and 40 ppm seed treatment; crop maturation (approximately 90 days)
Description: For the Experiments described below, application of 1,2-dimethyl-4-dimethylaminomethyl-5-hydroxy benzimidazole (referred to herein as INTRINSIC™) was by way of seed treatment. Treated seeds were prepared by mixing 1.0 kg of seed and 2.0 mL of an aqueous solution of INTRINSIC™ comprising 0.1% potassium hydroxide in a ZIPLOC™ bag. Control seeds were prepared by mixing 1.0 kg of seed and 2.0 mL of aqueous 0.1% potassium hydroxide solution in a ZIPLOC™ bag. The seeds and solutions were sufficiently mixed to wet the seeds. The seeds were dried after being wetted. […] Experiment 12 tested the effects of 20 ppm and 40 ppm INTRINSIC™ on soy bean yield under field test conditions. FIGS. 12(a) and 12(b) display yield results at crop maturation (approximately 90 days), showing greater yield crops from treated seeds compared to crops from control seeds.

wheat [4] = experiment: Experiment 2(c) wheat root growth, laboratory conditions, agar culture medium; conditions: 40 ppm seed treatment, 8 days, FIG. 2(c)
Description: as §1, with “Treated and control seeds were grown in seedling trays lined with moistened tissue.” left out

canola = experiment: Experiment 11 canola yield, field test conditions, second site; conditions: 20 ppm and 40 ppm seed treatment, crop maturation (approximately 90 days)
Description: For the Experiments described below, application of 1,2-dimethyl-4-dimethylaminomethyl-5-hydroxy benzimidazole (referred to herein as INTRINSIC™) was by way of seed treatment. Treated seeds were prepared by mixing 1.0 kg of seed and 2.0 mL of an aqueous solution of INTRINSIC™ comprising 0.1% potassium hydroxide in a ZIPLOC™ bag. Control seeds were prepared by mixing 1.0 kg of seed and 2.0 mL of aqueous 0.1% potassium hydroxide solution in a ZIPLOC™ bag. The seeds and solutions were sufficiently mixed to wet the seeds. The seeds were dried after being wetted. […] Experiments 10 and 11 tested the effects of 20 ppm and 40 ppm INTRINSIC™ on canola yield under field test conditions. FIGS. 10(a) and 10(b) display yield results at crop maturation (approximately 90 days) at a first site, showing greater yield crops from treated seeds compared to crops from control seeds. FIGS. 11(a) and 11(b) display yield results at crop maturation (approximately 90 days) at a second site, again showing greater yield crops from treated seeds compared to crops from control seeds.

Cc1nc2c(CN(C)C)c(O)ccc2n1C [INTRINSIC™, 1,2-dimethyl-4-dimethylaminomethyl-5-hydroxy benzimidazole]
number of roots compared to control seedlings (wheat [1]): greater number of roots
root length compared to control seedlings (wheat [1]): longer roots
shoot length compared to control seedlings (wheat [1]): longer shoots
foliage size compared to control seedlings (soy bean [2]): larger foliage
number of roots compared to control seedlings (soy bean [2]): greater number of roots
foliage size compared to control seedlings (corn): larger foliage
number of roots compared to control seedlings (corn): greater number of roots
soy bean yield compared to crops from control seeds (soy bean [3]): greater yield
number of roots compared to control seedlings (wheat [4]): greater number of roots
root length compared to control seedlings (wheat [4]): longer roots
shoot length compared to control seedlings (wheat [4]): longer shoots
canola yield compared to crops from control seeds (canola): greater yield
